# Results published in patent US20260085077A1, “HETEROCYCLIC DERIVATIVES AS JANUS KINASE INHIBITORS” (CHIESI FARMACEUTICI S.P.A., priority 2022, published 2026).
# Test system: IL-13 induced pSTAT6 in BEAS-2B human cell line
# Assay: Inhibition of IL-13 induced pSTAT6 in BEAS
# Type: cell-based
# Conditions: IL-13 induced pSTAT6, BEAS-2B cells, ELISA
# Procedure, shortened: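 BEAS-2B cells, cultured 48 h, were pretreated with compounds 30 min, then stimulated with IL-13 for 30 min. Phospho-STAT6 (Tyr641) in lysates quantified by sandwich ELISA; 11-point 5-fold series from 10 μM […], duplicate, IC50 fitted with QC (Z′≥0.35, Hill slope 0.5-5, S:B>2).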
row,Compound,IC50
1,"COc1cc2c(cc1-n1nc(C(=O)NCCCN(C)C)c3cnc(-c4cnc5cccnn45)cc31)OCCN2 [Example 73, N-(3-(dimethylamino)propyl)-6-(imidazo[1,2-b]pyridazin-3-yl)-1-(6-methoxy-3,4-dihydro-2H-benzo[b][1,4]oxazin-7-yl)-1H-pyrazolo[4,3-c]pyridine-3-carboxamide]",5.01 to 50.1 nM
2,"COc1cc2c(cc1-n1nc(NCCN(C)C)c3cnc(Nc4ncc[nH]c4=O)cc31)OCCN2 [Example 74, 3-((3-((2-(dimethylamino)ethyl)amino)-1-(6-methoxy-3,4-dihydro-2H-benzo[b][1,4]oxazin-7-yl)-1H-pyrazolo[4,3-c]pyridin-6-yl)amino)pyrazin-2(1H)-one]",50.1 to 501 nM
3,"COc1cc2c(cc1-n1nc(C(=O)NCCCN(C)C)c3cnc(Nc4ncc[nH]c4=O)cc31)OCCN2 [Example 75, N-(3-(dimethylamino)propyl)-1-(6-methoxy-3,4-dihydro-2H-benzo[b][1,4]oxazin-7-yl)-6-((3-oxo-3,4-dihydropyrazin-2-yl)amino)-1H-pyrazolo[4,3-c]pyridine-3-carboxamide]",50.1 to 501 nM
4,"COc1cc2c(cc1-n1nc(C(=O)NCCCN3CCC(F)(F)CC3)c3cnc(Nc4ncc[nH]c4=O)cc31)OCCN2 [Example 76, N-(3-(4,4-difluoropiperidin-1-yl)propyl)-1-(6-methoxy-3,4-dihydro-2H-benzo[b][1,4]oxazin-7-yl)-6-((3-oxo-3,4-dihydropyrazin-2-yl)amino)-1H-pyrazolo[4,3-c]pyridine-3-carboxamide]",5.01 to 50.1 nM
5,"COc1cc2c(cc1-n1nc(C(=O)NCCN3CC(=O)OC(C)(C)C3)c3cnc(-c4cnn5cccnc45)cc31)OCCN2 [Example 77, N-(2-(2,2-dimethyl-6-oxomorpholino)ethyl)-1-(6-methoxy-3,4-dihydro-2H-benzo[b][1,4]oxazin-7-yl)-6-(pyrazolo[1,5-a]pyrimidin-3-yl)-1H-pyrazolo[4,3-c]pyridine-3-carboxamide]",5.01 to 50.1 nM
6,"CN(C)CCCNC(=O)c1nn(-c2cc3c(cc2OC(F)F)NCCO3)c2cc(-c3cnn4cccnc34)ncc12 [Example 78, 1-(6-(difluoromethoxy)-3,4-dihydro-2H-benzo[b][1,4]oxazin-7-yl)-N-(3-(dimethylamino)propyl)-6-(pyrazolo[1,5-a]pyrimidin-3-yl)-1H-pyrazolo[4,3-c]pyridine-3-carboxamide]",5.01 to 50.1 nM
7,"COc1cc2c(cc1-n1nc(C(=O)NCCN3CCC(C(N)=O)CC3)c3cnc(-c4cnn5cccnc45)cc31)OCCN2 [Example 79, N-(2-(4-carbamoylpiperidin-1-yl)ethyl)-1-(6-methoxy-3,4-dihydro-2H-benzo[b][1,4]oxazin-7-yl)-6-(pyrazolo[1,5-a]pyrimidin-3-yl)-1H-pyrazolo[4,3-c]pyridine-3-carboxamide]",50.1 to 501 nM
8,"COc1cc2c(cc1-n1nc(C(=O)NCCN3CC[C@@H](C(N)=O)C3)c3cnc(-c4cnn5cccnc45)cc31)OCCN2 [Example 80, (R)-N-(2-(3-carbamoylpyrrolidin-1-yl)ethyl)-1-(6-methoxy-3,4-dihydro-2H-benzo[b][1,4]oxazin-7-yl)-6-(pyrazolo[1,5-a]pyrimidin-3-yl)-1H-pyrazolo[4,3-c]pyridine-3-carboxamide]",50.1 to 501 nM
9,"COc1cc2c(cc1-n1nc(C(=O)NCCN3CC4(COC(=O)C4)C3)c3cnc(-c4cnn5cccnc45)cc31)OCCN2 [Example 81, 1-(6-methoxy-3,4-dihydro-2H-benzo[b][1,4]oxazin-7-yl)-N-(2-(7-oxo-6-oxa-2-azaspiro[3.4]octan-2-yl)ethyl)-6-(pyrazolo[1,5-a]pyrimidin-3-yl)-1H-pyrazolo[4,3-c]pyridine-3-carboxamide]",5.01 to 50.1 nM
10,"COc1cc2c(cc1-n1nc(C(=O)NCCN3CCC4(COC4)C3)c3cnc(-c4cnn5cccnc45)cc31)OCCN2 [Example 82, N-(2-(2-oxa-6-azaspiro[3.4]octan-6-yl)ethyl)-1-(6-methoxy-3,4-dihydro-2H-benzo[b][1,4]oxazin-7-yl)-6-(pyrazolo[1,5-a]pyrimidin-3-yl)-1H-pyrazolo[4,3-c]pyridine-3-carboxamide]",5.01 to 50.1 nM
11,"COc1cc2c(cc1-n1nc(C(=O)NCCN3CC(=O)OC(C)C3)c3cnc(-c4cnn5cccnc45)cc31)OCCN2 (centres unmarked) [Example 83, 1-(6-methoxy-3,4-dihydro-2H-benzo[b][1,4]oxazin-7-yl)-N-(2-(2-methyl-6-oxomorpholino)ethyl)-6-(pyrazolo[1,5-a]pyrimidin-3-yl)-1H-pyrazolo[4,3-c]pyridine-3-carboxamide]",50.1 to 501 nM
12,"COc1cc2c(cc1-n1nc(NC(=O)C3CCN(C)CC3)c3cnc(-c4cnn5cccnc45)cc31)OCCN2 [Example 84, N-(1-(6-methoxy-3,4-dihydro-2H-benzo[b][1,4]oxazin-7-yl)-6-(pyrazolo[1,5-a]pyrimidin-3-yl)-1H-pyrazolo[4,3-c]pyridin-3-yl)-1-methylpiperidine-4-carboxamide]",5.01 to 50.1 nM
13,"COc1cc2c(cc1-n1nc(C(=O)NCCN3CCC(C4(O)COC4)CC3)c3cnc(-c4cnn5cccnc45)cc31)OCCN2 [Example 85, N-(2-(4-(3-hydroxyoxetan-3-yl)piperidin-1-yl)ethyl)-1-(6-methoxy-3,4-dihydro-2H-benzo[b][1,4]oxazin-7-yl)-6-(pyrazolo[1,5-a]pyrimidin-3-yl)-1H-pyrazolo[4,3-c]pyridine-3-carboxamide]",5.01 to 50.1 nM
14,"COc1cc2c(cc1-n1nc(NC(=O)OCCSC3CCOC3=O)c3cnc(-c4cnn5cccnc45)cc31)CCCN2 (centres unmarked) [Example 86, 2-((2-oxotetrahydrofuran-3-yl)thio)ethyl (1-(7-methoxy-1,2,3,4-tetrahydroquinolin-6-yl)-6-(pyrazolo[1,5-a]pyrimidin-3-yl)-1H-pyrazolo[4,3-c]pyridin-3-yl)carbamate]",5.01 to 50.1 nM
